What was measured:
human TLR2 = target: T1, human TLR2 (Homo sapiens, UniProt O60603); assay: TLR2 reporter assay (HEK-293-TLR, SEAP); format: cell-based; conditions: concentrations up to 20 uM
T1 construct: host or cells: recombinant HEK-293-TLR cell lines
Description: Samples and controls were tested in duplicate on recombinant HEK-293-TLR cell lines using a cell reporter assay at Invivogen using their standard assay conditions. These cell lines functionally over-express human TLR2 protein as well as a reporter gene which is a secreted alkaline phosphatase (SEAP). The production of this reporter gene is driven by an NFkB inducible promoter. The TLR reporter cell lines activation results are given as optical density values (OD).
20 μl of each test article were used to stimulate the hTLR2 reporter cell lines in a 200 μl of final reaction volume. Samples were tested in duplicate, with at least two concentrations tested—20 uM and 10 uM.
Compounds were tested using a TLR2 reporter assay (see general methods) that measured for stimulation of the TLR2 receptor. Stimulatory effect was measured as an increase in optical density (OD) due to release of secreted alkaline phosphatase (SEAP) and is shown in table 4: […]

[1] = Caco-2 bidirectional permeability assay; format: in vitro ADME; conditions: human, Caco-2; B to A permeability divided by A to B permeability
Description: (§1) 10 μM Test article was added to the apical (A) surface of Caco-2 cell monolayers (in HBSS buffer with 0.3% DMSO and 5 μM LY at 37 degrees C.) and compound permeation into the basolateral (B) compartment measured following 90 minutes incubation. This was also performed in the reverse direction (basolateral to apical) to investigate active transport. LC-MS/MS is used to quantify levels of both the test and standard control compounds. Efflux ratio was calculated by dividing the B to A permeability by the A to B permeability.
(§2) Drug permeability:Papp=(VA/(Area×time))×([drug]accepter/(([drug]initial,donor)×Dilution Factor)
(§3) The permeability of the compounds of the invention was assessed in a standard caco-2 bidirectional permeability assay (see general methods).

Caco-2 cell monolayers = assay: Caco-2 bidirectional permeability assay; format: in vitro ADME; conditions: Caco-2, 10 μM test article, 90 minutes
Description: as §1, §2, §3

[2] = system: E. coli, S. salivarius, L. casei, B. longum, M. luteus; assay: MIC assay, summary over all bacterial strains tested; format: cell-based; conditions: any of the strains tested
Description: The bioactivity of macrolide compounds against 4 strains of common gut bacteria (Escherichia coli, Streptococcus salivarius subsp. salivarius, Lactobacillus casei and Bifidobacterium longum subsp. infantis) and common mammalian skin isolate Micrococcus luteus, was assessed using the Minimum Inhibitory Concentration (MIC) assay. Bacterial strains were purchased from DSMZ (Brunswick, Germany) except M. luteus which was obtained from NCIMB, and stored in 20% glycerol at −80° C. Stock solutions (100% DMSO) of positive controls (azithromycin and erythromycin), and of test compounds 1 and 2 were diluted in broth to working stock concentrations of 256 μg/ml (final assay testing concentration range 128 μg/ml to 0.00391 μg/ml). Stock solutions of all other compounds were diluted in broth to working stock concentrations of 128 μg/ml (final assay testing concentration range 64 μg/ml to 0.00195 μg/ml). Bacterial strains were cultivated in appropriate broth in an anaerobic chamber at 37° C., except for M. luteus which was incubated aerobically at 37° C. 18 h cultures were diluted in broth to an OD595 of 0.1 and then further diluted 1:10. In 96-well plates, in duplicate, 200 μl working stock of test compound was transferred to well 1 and serially diluted (1:2) in broth. 100 μl bacterial suspension was aliquoted into each well and mixed thoroughly. Appropriate sterility controls were included and plates were incubated in an anaerobic chamber, or aerobically (M. luteus) at 37° C. for 18 h. The MIC was determined to be the concentration of test compound in the first well with no visible growth.

PBMCs = assay: Cytokine secretion from PBMCs (cytometric bead assay); format: cell-based, human; conditions: 2 days
Description: (§4) FIG. 11: Chemokine RANTES secretion (as measured by cytometric bead assay) from PBMC or macrophages stimulated with indicated compound for 48 h.
(§5) FIG. 12: IL12p70 secretion (as measured by cytometric bead assay) from PBMC or macrophages stimulated with indicated compound for 48 h.
(§6) FIG. 13: IL1 b secretion (as measured by cytometric bead assay) from PBMC, macrophages or CD4 T cells stimulated with indicated compound for 48 h.
(§7) Study 10: PBMCs and macrophages where exposed to compounds 1 or 2 for 2 days (FIG. 11).
(§8) Study 11: PBMCs and macrophages where exposed to compounds 1 and 2 for 2 days.
(§9) Study 12: PBMCs, macrophages and CD4+ T cells where exposed to compounds 1 and 2 for 2 days.

CD4+ T cells = assay: IL-1 beta secretion from CD4+ T cells (cytometric bead assay); format: cell-based, human; conditions: 2 days
Description: as §6, §9

[3] = Human microsome stability assay; format: in vitro ADME; conditions: pH 7.4, human liver microsomes, read-out: T½
Description: Rate of metabolism in microsomes was tested as follows:
Human liver microsomes were diluted with buffer C (0.1 M Potassium Phosphate buffer, 1.0 mM EDTA, pH 7.4) to a concentration of […]. Microsomal stability studies were carried out by adding 30 μL of 1.5 μM compound spiking solution to wells (1.5 μL of 500 μM spiking solution (10 μL of 10 mM DMSO stock solution into 190 μL ACN to eventually generate final test concentration of 1 uM) and 18.75 μL of 20 mg/mL liver microsomes into 479.75 μL of Buffer C). All samples were pre-incubated for approximately 15 minutes at 37° C. Following this, the reaction was initiated by adding 15 μL of the NADPH solution (6 mM) with gentle mixing. Aliquots (40 μL) were removed at 0, 5, 15, 30 and 45 minutes and quenched with ACN containing internal standard (135 μL). Protein was removed by centrifugation (4000 rpm, 15 min) and the sample plate analysed for compound concentration by LC-MS/MS. Half-lives were then calculated by standard methods, comparing the concentration of analyte with the amount originally present.
The metabolic stability of the compounds of the invention was assessed in a standard human microsome stability assay (see general methods).

[4] = system: PBMCs from CMV infected donors; assay: IFN-gamma secretion from PBMCs of CMV infected donors with CMV antigen (cytometric bead assay); format: cell-based, human; conditions: 3 days
Excerpt: FIG. 9: Interferon-gamma secretion (as measured by cytometric bead assay) from PBMCs (from a CMV+ donor) grown with CMV peptides in the presence or absence of compound 1 or A for 5 days.
Study 8: PBMCs from CMV infected donors cultured in the presence of CMV antigen where either untreated or exposed to compound 1 or compound 2 for 3 days.

macrophages = assay: Cytokine secretion from macrophages (cytometric bead assay); format: cell-based, human
Description: FIG. 10: Interferon-gamma secretion (as measured by cytometric bead assay) from macrophages stimulated with indicated compound for 48 h.
as §4, §5, §6
Study 9: Macrophages from healthy donors where exposed to compounds 1 or 2 for 48 hours. […] Compound 1 is therefore able to induce IFN-gamma secretion in macrophages from healthy donors.
as §7, §8, §9

T1 sequence (O60603 21-784): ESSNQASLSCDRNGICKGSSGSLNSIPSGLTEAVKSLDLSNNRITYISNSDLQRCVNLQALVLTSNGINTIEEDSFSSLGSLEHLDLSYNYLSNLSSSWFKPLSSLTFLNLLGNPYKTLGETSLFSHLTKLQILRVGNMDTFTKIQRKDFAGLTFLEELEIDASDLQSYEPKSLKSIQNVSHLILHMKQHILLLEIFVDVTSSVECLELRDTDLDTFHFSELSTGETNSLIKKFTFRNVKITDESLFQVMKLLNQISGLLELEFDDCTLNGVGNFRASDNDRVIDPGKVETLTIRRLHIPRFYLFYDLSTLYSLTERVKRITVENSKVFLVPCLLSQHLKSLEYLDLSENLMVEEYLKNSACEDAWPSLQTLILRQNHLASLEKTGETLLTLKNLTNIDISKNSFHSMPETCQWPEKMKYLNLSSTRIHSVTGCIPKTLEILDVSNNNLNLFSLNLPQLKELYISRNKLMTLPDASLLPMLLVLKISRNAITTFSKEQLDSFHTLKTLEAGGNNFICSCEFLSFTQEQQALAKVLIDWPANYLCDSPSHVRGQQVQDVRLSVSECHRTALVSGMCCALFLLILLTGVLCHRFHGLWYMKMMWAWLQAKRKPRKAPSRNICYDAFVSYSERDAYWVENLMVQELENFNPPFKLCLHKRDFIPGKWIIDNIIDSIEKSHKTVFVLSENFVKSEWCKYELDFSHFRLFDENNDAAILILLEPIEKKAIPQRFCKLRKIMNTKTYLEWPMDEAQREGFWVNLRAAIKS

CC[C@H]1OC(=O)[C@H](C)[C@@H](O[C@H]2C[C@@H](N(C)C)[C@H](O)[C@@H](C)O2)[C@H](C)[C@@H](O)[C@](C)(O)C[C@@H](C)CN(C)[C@H](C)[C@@H](O)[C@]1(C)O [Compound 1]
TLR2 stimulation (in words) (human TLR2): stimulated TLR2 at concentrations down to 5 uM
efflux ratio at 90 minutes, 10 μM [1]: 63
Papp (Caco-2 cell monolayers): 0.32 × 10^6/cm · s^−1
antibacterial activity against the bacterial strains tested (in words) [2]: no antibacterial activity
IL-1 beta secretion in PBMCs (PBMCs): slightly
IL-12p70 secretion from PBMCs (PBMCs): secreted IL-12p70
IL-1 beta secretion in CD4+ T cells (CD4+ T cells): no IL-1 beta was induced
half-life at 1 uM [3]: 1.8 h
IFN-gamma secretion [4]: induced secretion of high levels of IFN-gamma
IL-1 beta secretion in macrophages (macrophages; 2 days): increased
IL-12p70 secretion from macrophages (macrophages; 2 days): secreted IL-12p70
IFN-gamma secretion from macrophages (macrophages; 48 hours): secreted IFN-gamma

From US20210040134A1, “COMBINATIONS OF MACROLIDE COMPOUNDS AND IMMUNE CHECKPOINT INHIBITORS” (ISR IMMUNE SYSTEM REGULATION HOLDING AB (PUBL), priority 2018, published 2021)
